Experimental findings from patent US9228224B2, “Method for assaying OGFOD1 activity” (ISIS INNOVATION LIMITED, priority 2011, dated 2016) are described below.

In one experiment the target is T1, OGFOD1 (hsOGFOD1_FL) (Homo sapiens, UniProt Q8N543).
T1 construct: His6 tag (N-terminal pET-28a leader); made in house; host or cells: E. coli BL21(DE3)
T1 sequence (Q8N543 1-542): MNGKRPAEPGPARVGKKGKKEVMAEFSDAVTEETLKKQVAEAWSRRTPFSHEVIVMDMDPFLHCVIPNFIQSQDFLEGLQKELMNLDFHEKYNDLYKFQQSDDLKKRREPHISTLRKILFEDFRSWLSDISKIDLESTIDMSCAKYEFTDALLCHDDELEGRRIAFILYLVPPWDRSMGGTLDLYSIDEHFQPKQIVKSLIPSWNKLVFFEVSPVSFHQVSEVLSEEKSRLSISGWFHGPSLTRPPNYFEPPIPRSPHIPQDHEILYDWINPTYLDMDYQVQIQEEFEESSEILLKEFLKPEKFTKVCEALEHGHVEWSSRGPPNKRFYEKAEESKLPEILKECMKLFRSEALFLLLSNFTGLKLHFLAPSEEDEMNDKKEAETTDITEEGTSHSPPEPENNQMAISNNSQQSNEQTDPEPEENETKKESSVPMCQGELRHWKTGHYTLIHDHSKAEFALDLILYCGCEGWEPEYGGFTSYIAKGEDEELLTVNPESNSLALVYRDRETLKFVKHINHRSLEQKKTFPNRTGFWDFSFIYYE
Kind of experiment: Thermal stability shift assay (SYPRO Orange). It counts as binding. Conditions: change in apparent protein melting temperature; compound 20 μM, 1 μM hsOGFOD1_FL, 50 μM MnCl2. As to the method:
Assays were conducted in 50 mM HEPES buffer, 150 mM NaCl, pH 7.5. A stock solution of MnCl2 (500 mM) in 20 mM HCl was prepared, and diluted to 5 mM with water. A master mix containing 2.085 mL buffer, 21 μL MnCl2 (5 mM, 50 μM final), 21 μL hsOGFOD1_FL (100 μM, 1 μM final), and 2.1 μL SYPRO Orange dye was prepared. The screen was conducted using stock solutions of compounds (400 μIM in DMSO) at a final concentration of 20 μM, by mixing 1 μL compound stock solution with 19 μL assay master mix. Incubations were performed in a white 96-well RT-PCR plate and subjected to thermal cycling as per an established protocol. Data was analysed in Microsoft Excel and GraphPad Prism.
The effect of small molecules on the stability of proteins to thermal denaturation was assessed by the change in apparent protein melting temperature, defined as the temperature at which equal amounts of folded and unfolded protein exist in solution. Unfolding was quantified by measurement of the fluorescence increase of SYPRO® Orange dye (Invitrogen) upon binding to hydrophobic residues that are exposed during unfolding. Approximately 400 small-molecule compounds were tested at a final concentration of 20 μM. Stabilization data for selected compounds are shown in below. Structures of the compounds are set out below.

The target of experiment [1] is T2, OGFOD1 (Homo sapiens, UniProt Q8N543).
T2 construct: His6 tag (N-terminal pET-28a leader); made in house; host or cells: E. coli BL21(DE3)
T2 sequence (Q8N543 1-542): T1 sequence (Q8N543 1-542)
The experiment is described as follows: MALDI-based hydroxylation assay, inhibitor screen. It counts as biochemical. Conditions: general statement in the description, no conditions given. How it is done: A library of 150 compounds comprising known and potential inhibitors of 2OG oxygenases was screened against OGFOD1 by a MALDI-based hydroxylation assay. Single-point measurements were conducted in duplicate, using 4 μM OGFOD1 at 100 μM final compound concentration in the presence of excess (300 μM) 2OG, with incubation at 37° C. for 30 min.

Experiment [2] deals with T2, OGFOD1. The experiment is described as follows: OGFOD1-mediated hydroxylation of RPS23 20mer peptide with generic 2OG oxygenase inhibitors. It counts as biochemical. The settings on record: 1 mM inhibitor. As to the method:
OGFOD1-mediated hydroxylation of the initially identified 20mer peptide sequence of human RPS23 was strictly dependent on presence of 2OG and Fe(II), and hydroxylation was reduced in presence of 1 mM of generic 2OG oxygenase inhibitors such as N-oxalyl glycine (NOG), pyridine 2,4-dicarboxylic acid (2,4-PDCA) and transition metal ions such as Co^II.

The next experiment addresses T3, full-length OGFOD1 (Homo sapiens, UniProt Q8N543).
T3 construct: His6 tag (N-terminal pET-28a leader); made in house; host or cells: E. coli BL21(DE3)
T3 sequence (Q8N543 1-542): T1 sequence (Q8N543 1-542)
The experiment is described as follows: 2OG turnover assay. It counts as biochemical. Conditions: 1 mM inhibitor, 37° C., 20 min. As to the method:
Values shown are averages of two or three experiments. Error bars represent standard deviations. The assay was carried out for 20 min at 37° C. using 8 μM recombinant full-length human OGFOD1 (SEQ ID NO:1), 288 μM 2OG, 3.7 μM 1-[^14C]-2OG (specific activity […], stock concentration 1.83 mM), RPS23 peptide, 100 μM (NH4)2Fe(SO4)2, 4 mM ascorbate, 0.66 mg/ml catalase, 1 mM DTT, 50 mM Tris.HCl pH 7.5, and with one of OGFOD1, (NH4)2Fe(SO4)2 and ascorbate missing from the assay. The assay was also performed in the presence of 1 mM pyridine 2,4-dicarboxylic acid (2,4-PDCA).
Constructs of OGFOD1 encoding full-length protein or its C-terminal domain were tested for enzymatic activity using a 2OG turnover assay (Kivirikko and Myllyla (1982) Methods in Enzymology 82: […]). […]
These were diluted to a total volume of 100 μl with 50 mM Tris-Cl buffer, pH 7.5. […] The Eppendorf tubes containing the hyamine hydroxide were transferred to scintillation vials, mixed with 5 mL OptiPhase Liquid Scintillation Cocktail (Fisher Scientific) and total ^14C counts quantified using a Beckman LS6500 Multi-Purpose Scintillation Counter. Conversion of 2OG was calculated from the percentage of 1-[^14C]-2OG that had been converted into gaseous ^14CO2. […]

Experiment [3] concerns the target T2, OGFOD1. The experiment is described as follows: MALDI assay of OGFOD1 specificity towards RPS23 and RPS23-like peptides. It counts as biochemical. Conditions: peptide as substrate; 4 μM OGFOD1/100 μM peptide, 37° C., 30 min; symbols not defined. As to the method:
To investigate the specificity of OGFOD1 towards variations in the sequence and length, multiple corresponding to RPS23 and RPS23-like sequences were synthesized and tested. MALDI assays were performed using a 1:25 protein:peptide (4 μM/100 μM) ratio, with incubation at 37° C. for 30 min.
Mutation of prolyl to alanine or isoleucine residues completely abolished hydroxylation, providing further evidence for OGFOD1 acting as a prolyl hydroxylase. […] This observation is consistent with the high evolutionary conservation of the amino acids following, but not of those preceding the prolyl (Pro-62) residue in RPS23.

For `N#Cc1ccc2c(=O)c(C(=O)O)c[nH]c2c1` [Compound 7], the “Stabilization (° C.)” value on OGFOD1 (hsOGFOD1_FL) is “+7.5 °C”. As for `O=C(O)CCC(=O)Nc1cc2ccccc2cn1` [Compound 1], at OGFOD1 (hsOGFOD1_FL), the “Stabilization (° C.)” value was “+8.4 °C”. For `O=C(O)CNC(=O)C(=O)O` [N-oxalylglycine], the “inhibition of OGFOD1 prolyl hydroxylase activity” value (“inhibition” for short) on OGFOD1 [1] was “inhibitory”. Also, the “hydroxylation of RPS23 20mer peptide” value on OGFOD1 [2] is “reduced”.

With `CC(NC(=O)C(=O)O)C(=O)O` (centres unmarked) [Compound 9], the “Stabilization (° C.)” value on OGFOD1 (hsOGFOD1_FL) was “+6.3 °C”. Same read-out and setting: the result for `O=C(O)CCNC(=O)c1nc2ccccc2cc1O` [Compound 10] reads “+7.2 °C”; that for `O=C(O)CCC(=O)Nc1ccc(Br)cn1` [Compound 6], “+7.0 °C”. Take `O=C(O)c1ccnc(C(=O)O)c1` [Compound 11, Pyridine 2,4-dicarboxylic acid]: on OGFOD1 (hsOGFOD1_FL), the “Stabilization (° C.)” value is “+6.7 °C”. Also, the “inhibition” value against OGFOD1 [1] is listed as “inhibitory”. Moreover, on OGFOD1 [2], the “hydroxylation of RPS23 20mer peptide” value is listed as “reduced”. Besides, at full-length OGFOD1, the “OGFOD1-catalyzed 2OG turnover” value is “inhibited”. On to `CCC(=O)C1C(=O)CC(C(=O)O)CC1=O` (centres unmarked) [Compound 8, Prohexadione], for which the “Stabilization (° C.)” value on OGFOD1 (hsOGFOD1_FL) was “+6.9 °C”.

As to `O=C(O)c1ccnc(-c2cc(C(=O)O)ccn2)c1` [Compound 5], the “Stabilization (° C.)” value on OGFOD1 (hsOGFOD1_FL) was “+7.5 °C”. Regarding `O=C(O)CNC(=O)c1nc(Cl)c2ccccc2c1O` [Compound 4, 2-(1-Chloro-4-hydroxyisoquinoline-3-carboxamido)acetic acid], the “Stabilization (° C.)” value at OGFOD1 (hsOGFOD1_FL) is “+7.0 °C”. Besides, the “inhibition” value against OGFOD1 [1] was “inhibit OGFOD1”; against OGFOD1 [1] (listed as FG2216), “inhibitory”.

Consider `O=C(O)CCC(=O)NNC(=O)c1ccc2ccccc2c1` [Compound 2], for which, on OGFOD1 (hsOGFOD1_FL), the “Stabilization (° C.)” value was “+7.1 °C”. `O=C(O)c1cc(O)c(O)c(O)c1` [gallic acid]: the “inhibition” value against OGFOD1 [1] is “inhibitory”. On to `O=C(O)CCC(=O)NNS(=O)(=O)c1ccccc1` [Compound 3], for which the “Stabilization (° C.)” value at OGFOD1 (hsOGFOD1_FL) is “+7.1 °C”. For “CODD: PHD2 C-terminal oxygen-dependent degradation domain (CODD) substrate of HIF-1α”, the Hydroxylation result in the experiment with OGFOD1 [3] is on record as “No hydroxylation”.
